Tests used:
[1] = tested on: ZDF male rat; experiment: Glucose lowering in vivo assay; conditions: 10 mg/kg p.o. once daily for 28 days; for Difference from Vehicle Control: blood glucose
Description: Homozygous expression of this mutation leads to a phenotype of hyperphagia, obesity, insulin resistance, hyperglycemia, and hypertriglyceridemia resulting in uncontrolled diabetes, β-cell failure, severe nephropathy, and proteinuria by 16 weeks of age.
The hypoglycemic activity of the compounds of this invention can be determined by the amount of test compound that delays or suppresses elevations in glucose levels relative to a vehicle without test compound in male ZDF rats.
Male Zucker Diabetic Fatty (ZDF/Crl-Lepr^fa) rats were obtained from Charles River Laboratories (Wilmington, Mass.). Rats were pair housed under a 12-h light/dark cycle with free access to water and Purina 5008 rat chow (Protein 26.8%, fat 16.7%, carbohydrates 56.5% kcal/vol; Purina Mills, Richmond, Ind.). Prior to the onset of diabetic hyperglycemia (fed blood glucose<200 mg/dl) rats were randomly allocated to groups based on HOMA values. The Homeostasis Model Assessment (HOMA) calculation estimates peripheral insulin resistance from corresponding insulin and glucose measurements. Rats were administered a once daily oral dose for 28 days with suspensions of vehicle alone (1.5% carboxymethyl-cellulose plus 0.2% Tween 20), vehicle plus test compound in the range 0.1-100 mg/kg. At the end of the study, an oral glucose tolerance test (OGTT, 2 g/kg dextrose) was conducted to measure glucose excursion. Tail venipuncture in conscious, 1 hr fasted animals at baseline and weekly thereafter, provided sample for blood glucose, serum insulin, triglycerides, cholesterol, and FFA measurements. Glucose levels were determined with a HemoCue Glucose Monitor (Ryan Diagnostics), insulin was determined by ELISA (Alpco), and lipids were determined by Cobas Mira Analyzer (Roche) and by enzymatic assays (Wako). Lipoprotein cholesterol was determined by FPLC following the method of Kieft et al. (Kieft K A, Bocan T M, Krause B R. Rapid on-line determination of cholesterol distribution among plasma lipoproteins after high-performance gel filtration chromatography. J Lipid Res 1991; 32(5): 859-66). Briefly, plasma was separated on a Superose 6HR 10/30 column (Pharmacia) and cholesterol was then measured in-line utilizing a post-column enzymatic cholesterol assay (Roche). Percent of total area for each lipoprotein fraction were calculated. These percent areas were then multiplied by the total plasma cholesterol concentration, yielding the cholesterol concentration in each fraction. Efficacy was determined by comparison to untreated vehicle controls and reference agents and active compounds selected for further evaluation.

[2] = molecular target: T1, Human recombinant AT1 receptor (Homo sapiens, UniProt P30556); experiment: AT1 receptor radioligand binding (flashplate); conditions: 125I Sar1,Ile8-Angiotensin II radioligand
T1 construct: purchased
T1 sequence (P30556 1-359): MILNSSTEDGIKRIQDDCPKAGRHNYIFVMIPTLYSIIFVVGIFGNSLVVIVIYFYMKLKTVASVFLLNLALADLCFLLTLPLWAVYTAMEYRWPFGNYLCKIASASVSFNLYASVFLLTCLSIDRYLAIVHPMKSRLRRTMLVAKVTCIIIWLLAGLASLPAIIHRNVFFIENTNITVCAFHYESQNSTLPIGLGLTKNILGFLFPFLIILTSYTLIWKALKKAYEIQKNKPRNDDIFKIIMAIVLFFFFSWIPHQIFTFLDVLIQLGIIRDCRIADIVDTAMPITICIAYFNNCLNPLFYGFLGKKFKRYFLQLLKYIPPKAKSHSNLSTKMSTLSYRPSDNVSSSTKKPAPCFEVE
Procedure, shortened: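 Human recombinant AT1 receptor was coated on flashplates and competed against 125I-Sar1,Ile8-angiotensin II at its Kd concentration for 2 h at room temperature. Compounds were tested from […], with nonspecific binding defined by 10 μM angiotensin II. Ki was derived via Cheng-Prusoff.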

[3] = tested on: Spontaneously hypertensive rats (SHR); experiment: Blood pressure reduction in vivo assay (radiotelemetry); conditions: SHR rat, single dose 10 mg/kg p.o.
Protocol: The rats are surgically implanted with radio-telemetry transmitters to allow capture of conscious, unrestrained systolic and diastolic BP as well as heart rate.
In vivo studies were conducted to show the effectiveness of a compound in reducing blood pressure due to its angiotensin II receptor antagonist activity, and its ability to induce insulin sensitization in a diabetic rat due to its PPARγ agonist activity.
Spontaneously hypertensive rats (SHR) were implanted with radiotelemetry devices capable of measuring blood pressure (BP) via an aortic cannula and transmitting the data to a receiving pad under the cage. Animals were conscious and had access to food and water ad libitum while blood pressure was monitored continuously. Rats were dosed with vehicle and monitored for 24 hours to establish baseline before administering compound and measuring changes in blood pressure for another 24 hours. Changes in blood pressure were calculated over time and compared to vehicle controls.

[4] = molecular target: T2, human PPARγ LBD bound to Gal4 DBD (Homo sapiens, UniProt P37231); experiment: PPARγ transfection luciferase reporter assay in HepG2 cells; format: cell-based; conditions: for Emax: HepG2, 24 h, compared to full agonist response (standard TZD full agonist), read-out: PPARγ % activation; for EC50: HepG2, 24 hours exposure
T2 construct: expressed in transfected cells; host or cells: HepG2
T2 sequence (P37231 238-503 limits assumed): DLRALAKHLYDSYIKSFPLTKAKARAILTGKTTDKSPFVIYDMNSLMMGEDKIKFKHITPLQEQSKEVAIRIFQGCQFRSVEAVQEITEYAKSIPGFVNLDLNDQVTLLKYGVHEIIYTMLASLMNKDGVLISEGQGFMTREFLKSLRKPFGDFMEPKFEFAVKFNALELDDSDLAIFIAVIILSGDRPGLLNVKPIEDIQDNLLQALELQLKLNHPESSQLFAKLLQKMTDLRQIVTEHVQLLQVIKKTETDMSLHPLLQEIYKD
Procedure, shortened: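 HepG2 cells transiently co-transfected with Gal4 DBD–PPARγ LBD, luciferase reporter and β-galactosidase, then exposed 24 h to compound (0.1 nM–100 μM). Luciferase/β-gal ratio gives activation. EC50 is relative to each compound's own maximum; efficacy is % of a reference TZD full agonist.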

SMILES	Blood Glucose (1 h Fast) after single daily dose of 10 mg/kg p.o. for 28 days [1]	Difference from Vehicle Control [1]	IC50 [2]	Duration of activity [3]	Maximal fall in Mean Blood Pressure after single dose of 10 mg/kg p.o. (mmHg) [3]	Emax [4]	EC50 [4]
CCc1nc2c(C)cc(CCO)nc2n1[C@H]1CCc2cc(-c3ccccc3-c3nnn[nH]3)ccc21 [Example 13a, 2-(3-((1S)-5-(2-(1H-tetrazol-5-yl)phenyl)-2,3-dihydro-1H-inden-1-yl)-2-ethyl-7-methyl-3H-imidazo[4,5-b]pyridin-5-yl)ethanol]	112 mg/dL	-477 mg/dL	4.1 nM	>20 h	−28 mmHg	24%	415 nM
CCc1nc2c(C)cc(CCOC)nc2n1[C@H]1CCc2cc(-c3ccccc3-c3nnn[nH]3)ccc21 [Example 13, 3-((1S)-5-(2-(1H-tetrazol-5-yl)phenyl)-2,3-dihydro-1H-inden-1-yl)-2-ethyl-5-(2-methoxyethyl)-7-methyl-3H-imidazo[4,5-b]pyridine]	120 mg/dL	-469 mg/dL	2.5 nM	>20 h	−46 mmHg	26%	435 nM
CCc1nc2c(C)cc(CC(C)(C)O)nc2n1[C@H]1CCc2cc(-c3ccccc3-c3nnn[nH]3)ccc21 [Example 16, 1-(3-((1S)-5-(2-(1H-tetrazol-5-yl)phenyl)-2,3-dihydro-1H-inden-1-yl)-2-ethyl-7-methyl-3H-imidazo[4,5-b]pyridin-5-yl)-2-methylpropan-2-ol]	114 mg/dL	-475 mg/dL	2.9 nM	>20 h	−37 mmHg	20%	250 nM
CCc1nc2c(C)cc([C@@H](O)C(C)C)nc2n1[C@H]1CCc2cc(-c3ccccc3-c3nnn[nH]3)ccc21 [Example 10, (S)-1-(3-((1S)-5-(2-(1H-tetrazol-5-yl)phenyl)-2,3-dihydro-1H-inden-1-yl)-2-ethyl-7-methyl-3H-imidazo[4,5-b]pyridin-5-yl)-2-methylpropan-1-ol]	239 mg/dL	-133 mg/dL	1.6 nM	>20 h	−27 mmHg	27%	145 nM
